The record followed here is patent publication US20260042755A1, “GPR6 INVERSE AGONISTS” (MapLight Therapeutics, Inc., priority 2022, published 2026).

pIC50: −log10 of the molar value.

For one assay, the target named is T1, GPR6 (Homo sapiens, UniProt P46095).
T1 construct: expressed in transfected cells; host or cells: CHO cells
The assay is described as follows: GPR6 antagonist functional cAMP assay (LANCE Ultra cAMP TR-FRET, CHO cells stably expressing GPR6). The class given is cell-based. The protocol:
(§1) Example 56. GPR6 and GPR3 Antagonist Functional cAMP Assay
(§2) CHO cells stably expressing GPR6 or GPR3 receptors were dissociated from cell culture flasks and incubated for 2 h at 37° C. in a 10 cm dish in a humidified incubator. Cells were dissociated, counted to have 1e6 cells/mL (4.5e6 cells needed/384-well plate), washed once in starved media, than in D-PBS and finally suspended in assay buffer (Krebs-Ringer Bicarbonate Buffer with 1800 mg/L glucose, without calcium chloride and sodium bicarbonate (Sigma) in the presence of 0.1% BSA and 150 μM of Ro 20-1724 Phosphodiesterase inhibitor).
(§3) Cells in suspension from above were plated in 384-well white Optiplate (PerkinElmer) at 10,000 cells/well/10 μl, briefly centrifuged prior direct addition of compounds ([…]) in 10 mM DMSO using a Tecan D300e Digital Dispenser, final DMSO in each well was normalized to 0.1%. Cells were incubated in the presence of compounds for 45 min at 37° C. in a humidified incubator.
(§4) To measure cAMP levels, LANCE® Ultra cAMP assay (Perkin Elmer), a homogeneous time-resolved fluorescence resonance energy transfer (TR-FRET) immunoassay was used following manufacturer's recommendations. Plates were shaken for 1 h at room temperature before reading on a Tecan InfiniteF200Pro multi-mode plate reader using standard FRET settings (Excitation 340 nm, Emission at 615 nm). FRET values were reported as readings obtained at 665 nm. Data were normalized to DMSO (0.1%) and reference compounds (100%) and fit to a 4-parameter logistical fit to generate antagonist IC50s.

The target in another assay is T2, GPR3 (Homo sapiens, UniProt P46089).
T2 construct: expressed in transfected cells; host or cells: CHO cells
T2 sequence (P46089 whole entry, species assumed): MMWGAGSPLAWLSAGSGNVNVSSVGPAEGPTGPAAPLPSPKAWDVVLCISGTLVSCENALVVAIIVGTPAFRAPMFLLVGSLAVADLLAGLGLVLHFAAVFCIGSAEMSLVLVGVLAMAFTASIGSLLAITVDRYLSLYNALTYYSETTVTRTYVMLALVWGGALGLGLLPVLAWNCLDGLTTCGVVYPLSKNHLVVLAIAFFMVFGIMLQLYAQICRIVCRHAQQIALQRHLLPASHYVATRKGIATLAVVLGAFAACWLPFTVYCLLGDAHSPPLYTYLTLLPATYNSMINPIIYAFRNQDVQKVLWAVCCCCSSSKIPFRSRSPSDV
The assay is described as follows: GPR3 antagonist functional cAMP assay (LANCE Ultra cAMP TR-FRET, CHO cells stably expressing GPR3). The class given is cell-based. On the procedure:
as §1, §2, §3, §4
Background: Cyclic AMP is a second messenger, typically raised through Gs and lowered through Gi signalling.

Where [1] appears, read: CHO cells stably expressing GPR6, cAMP assay (Example 24).
The mark [2] stands for this setting: CHO cells stably expressing GPR3, cAMP assay (Example 24).
Where [3] appears, read: CHO cells stably expressing GPR6, cAMP assay.
[4] abbreviates: CHO cells stably expressing GPR3, cAMP assay.
The mark [5] stands for this setting: procedure as described in Example 24.

T1 sequence (P46095 whole entry): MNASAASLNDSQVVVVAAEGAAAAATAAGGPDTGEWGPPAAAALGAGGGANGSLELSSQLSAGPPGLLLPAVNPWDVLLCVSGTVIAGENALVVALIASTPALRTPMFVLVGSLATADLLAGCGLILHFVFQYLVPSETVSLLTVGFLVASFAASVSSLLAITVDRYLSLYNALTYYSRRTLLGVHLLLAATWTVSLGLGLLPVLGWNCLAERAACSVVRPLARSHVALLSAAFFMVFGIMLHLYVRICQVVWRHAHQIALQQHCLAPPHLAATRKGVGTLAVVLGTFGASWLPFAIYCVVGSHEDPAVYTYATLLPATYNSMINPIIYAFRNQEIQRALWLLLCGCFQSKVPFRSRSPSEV

The term pIC50 denotes the IC50 on a negative log10 scale, so that one unit is a factor of ten. A low value points to a large IC50. With `CC(=O)N1CCc2nc(N3CCC(Oc4ccccc4)CC3)c(-c3cnn(C)c3)nc2C1` [Compound 419, 1-[3-(1-methyl-1H-pyrazol-4-yl)-2-(4-phenoxypiperidin-1-yl)-5H,6H,7H,8H-pyrido[3,4-b]pyrazin-6-yl]ethan-1-one], the negative logarithm of the IC50 (pIC50) against GPR6 (setting [1]) and against GPR3 (setting [2]) was 4.52 to 6.00 throughout.
Turning to `Cn1cc(-c2nc3cnc(N)cc3nc2N2CCC(Oc3cc(Cl)ccc3Cl)CC2)cn1` [Compound 443, 2-[4-(2,5-dichlorophenoxy)piperidin-1-yl]-3-(1-methyl-1H-pyrazol-4-yl)pyrido[3,4-b]pyrazin-7-amine], the pIC50 at GPR6 (setting [1]) and against GPR3 (setting [2]) was 4.52 to 6.00 each time.
Turning to `Cn1cc(-c2nc3cnc(Cl)cc3nc2N2CCC(Oc3ccc(F)cc3F)CC2)cn1` [Compound 289, 7-chloro-2-(4-(2,4-difluorophenoxy)piperidin-1-yl)-3-(1-methyl-1H-pyrazol-4-yl)pyrido[3,4-b]pyrazine], the pIC50 at GPR6 (procedure of Example 24) and against GPR3 (procedure of Example 24) was 4.52 to 6.00 in each case.
For `COc1ccc(OC2CCN(c3nc4c(nc3-c3cnn(C)c3)CN(C(C)=O)CC4)CC2)cc1F` [Compound 502, 1-{2-[4-(3-fluoro-4-methoxyphenoxy)-1-piperidyl]-3-(1-methyl-4-pyrazolyl)-5,6,7,8-tetrahydro-1,4,6-triaza-6-naphthyl}-1-ethanone], the pIC50 against GPR6 (setting [3]) was 6.00 to 7.00; on GPR3 (setting [4]), 4.52 to 6.00.
Regarding `CC1CN(Cc2ccc(F)cc2F)CCN1c1nc2ccncc2nc1-c1cn[nH]c1` (single isomer, unassigned) [Compound 45, 4-[(2,4-difluorophenyl)methyl]-2-methyl-1-[3-(1H-pyrazol-4-yl)pyrido[3,4-b]pyrazin-2-yl]piperazine], the pIC50 on GPR6 (setting [5]) and against GPR3 (setting [5]) was 4.52 to 6.00 in each case.
Regarding `COc1ccc(OC2CCN(c3nc4c(nc3-c3cnn(C)c3)CN(C(C)=O)CC4)CC2)c(F)c1` [Compound 452, 1-{2-[4-(2-fluoro-4-methoxyphenoxy)piperidin-1-yl]-3-(1-methyl-1H-pyrazol-4-yl)-5H,6H,7H,8H-pyrido[3,4-b]pyrazin-6-yl}ethan-1-one], the pIC50 on GPR6 (setting [1]) is 6.00 to 7.00; against GPR3 (setting [2]), 4.52 to 6.00.
Regarding `Fc1ccc(Cl)cc1CN1CCN(c2nc3ccncc3nc2-c2cn[nH]c2)CC1` [Compound 4, 1-[(5-chloro-2-fluorophenyl)methyl]-4-[3-(1H-pyrazol-4-yl)pyrido[3,4-b]pyrazin-2-yl]piperazine], the negative-log IC50 (pIC50) at GPR6 (setting [5]) is 6.00 to 7.00; at GPR3 (setting [5]), 4.52 to 6.00.
As to `Cn1cc(-c2nc3cnccc3nc2N2CCN(CC3CCCC(F)(F)C3)CC2)cn1` (centres unmarked) [Compound 214, 1-[(3,3-difluorocyclohexyl)methyl]-4-[3-(1-methyl-1H-pyrazol-4-yl)pyrido[3,4-b]pyrazin-2-yl]piperazine], the pIC50 against GPR6 (setting [1]) and on GPR3 (setting [2]) was 4.52 to 6.00 each time.
Consider `CC(C)(O)C(O)c1cc2nc(-c3cnn(CF)c3)c(N3CCN(Cc4ccc(F)cc4F)CC3)nc2cn1` (single isomer, unassigned) [Compound 602], for which the pIC50 against GPR6 (setting [3]) and against GPR3 (setting [4]) was 6.00 to 7.00 throughout.
Consider `CN(C)C(=O)N1CCc2nc(N3CCC(Oc4ccc(F)cc4F)CC3)c(-c3cnn(C4CCCCO4)c3)nc2C1` (centres unmarked) [Compound 182, 2-[4-(2,4-difluorophenoxy)piperidin-1-yl]-N,N-dimethyl-3-[1-(oxan-2-yl)-1H-pyrazol-4-yl]-5H,6H,7H,8H-pyrido[3,4-b]pyrazine-6-carboxamide], for which the negative-log IC50 (pIC50) was 6.00 to 7.00 against GPR6 (setting [1]) and 4.52 to 6.00 on GPR3 (setting [2]).
On the same counts, the results for `N#CN1CCc2nc(N3CCC(Oc4ccc(F)cc4F)CC3)c(-c3cnn(C4CCCCO4)c3)nc2C1` (centres unmarked) [Compound 200, 2-[4-(2,4-difluorophenoxy)piperidin-1-yl]-3-[1-(oxan-2-yl)-1H-pyrazol-4-yl]-5H,6H,7H,8H-pyrido[3,4-b]pyrazine-6-carbonitrile] are 4.52 to 6.00 and 4.52 to 6.00.
With `CC(=O)N1CCc2nc(N3CCC(Oc4ccc(F)cc4F)CC3)c(-c3cnc4n3CCN(C(C)=O)C4)nc2C1` [Compound 17, 1-(3-(6-acetyl-2-(4-(2,4-difluorophenoxy)piperidin-1-yl)-5,6,7,8-tetrahydropyrido[3,4-b]pyrazin-3-yl)-5,6-dihydroimidazo[1,2-a]pyrazin-7(8H)-yl)ethan-1-one], the pIC50 on GPR6 (setting [5]) and against GPR3 (setting [5]) was 4.52 to 6.00 throughout.
Turning to `CC(=O)N1CCc2nc(N3CCN(C(C)c4ccc(F)cc4F)CC3)c(-c3cnn(C)c3)nc2C1` (centres unmarked) [Compound 729, 1-(2-{4-[1-(2,4-difluorophenyl)ethyl]-1-piperazinyl}-3-(1-methyl-4-pyrazolyl)-5,6,7,8-tetrahydro-1,4,6-triaza-6-naphthyl)-1-ethanone], the pIC50 at GPR6 (procedure of Example 24) and on GPR3 (procedure of Example 24) was 4.52 to 6.00 each time.
Turning to `CC(C)(O)[C@](C)(O)c1cc2nc(-c3cnn(C(F)F)c3)c(N3CCN(Cc4cc(F)ccc4F)CC3)nc2cn1` (single isomer, unassigned) [Compound 795], the pIC50 against GPR6 (procedure of Example 24) was 6.00 to 7.00; against GPR3 (procedure of Example 24) it was 4.52 to 6.00.
Take `CC(=O)N1CCc2nc(N3CCC(Cc4cc(F)ccc4F)CC3)c(-c3ccc(F)c(N)n3)nc2C1` [Compound 702, 1-[3-(6-amino-5-fluoro-2-pyridyl)-2-{4-[(2,5-difluorophenyl)methyl]-1-piperidyl}-5,6,7,8-tetrahydro-1,4,6-triaza-6-naphthyl]-1-ethanone]: the pIC50 on GPR6 (procedure of Example 24) was over 7.00; at GPR3 (procedure of Example 24), 6.00 to 7.00.
Take `Cn1cc(-c2nc3cnc(C(O)C(C)(C)O)cc3nc2N2CCC(Oc3ccc(F)cc3F)CC2)cn1` (centres unmarked) [Compound 263, 1-(2-(4-(2,4-difluorophenoxy)piperidin-1-yl)-3-(1-methyl-1H-pyrazol-4-yl)pyrido[3,4-b]pyrazin-7-yl)-2-methylpropane-1,2-diol]: the pIC50 on GPR6 (setting [1]) was 6.00 to 7.00; on GPR3 (setting [2]), 4.52 to 6.00.
In the case of `CC(C)(O)[C@@H](O)c1cc2nc(N3CCC(Cc4ccc(F)cc4F)CC3)c(-c3cnn(CF)c3)nc2cn1` (single isomer, unassigned) [Compound 727], the pIC50 on GPR6 (procedure of Example 24) and on GPR3 (procedure of Example 24) was 6.00 to 7.00 in each case.
Regarding `[2H]C([2H])([2H])n1cc(-c2nc3c(nc2N2CCC(Oc4ccc(F)cc4F)CC2)CCN(C(C)=O)C3)cn1` [Compound 405, 1-{2-[4-(2,4-difluorophenoxy)piperidin-1-yl]-3-[1-(2H3)methyl-1H-pyrazol-4-yl]-5H,6H,7H,8H-pyrido[3,4-b]pyrazin-6-yl}ethan-1-one], the pIC50 against GPR6 (setting [1]) is 6.00 to 7.00; against GPR3 (setting [2]), 4.52 to 6.00.
Consider `CC(=O)N1CCc2nc(N3CCC(Oc4ccc(C#N)cc4F)CC3)c(-c3cnn(C)c3)nc2C1` [Compound 500, 4-{1-[6-acetyl-3-(1-methyl-4-pyrazolyl)-5,6,7,8-tetrahydro-1,4,6-triaza-2-naphthyl]-4-piperidyloxy}-3-fluorobenzonitrile], for which the negative-log IC50 (pIC50) against GPR6 (setting [3]) and on GPR3 (setting [4]) was 4.52 to 6.00 throughout.
Regarding `Cc1cc2nc(N3CCC(Oc4ccc(F)cc4F)CC3)c(-c3cnn(C)c3)nc2cn1` [Compound 228, 4-(2,4-difluorophenoxy)-1-[7-methyl-3-(1-methyl-1H-pyrazol-4-yl)pyrido[3,4-b]pyrazin-2-yl]piperidine], the pIC50 is 6.00 to 7.00 against GPR6 (setting [1]) and 4.52 to 6.00 against GPR3 (setting [2]).
Consider `CC(C)(O)[C@H](O)c1cc2nc(N3CCN(Cc4ccccc4F)CC3)c(-c3cnn(CF)c3)nc2cn1` (single isomer, unassigned) [Compound 648], for which the results for the pIC50 on GPR6 (procedure of Example 24) and against GPR3 (procedure of Example 24) were 6.00 to 7.00 and 4.52 to 6.00, respectively.
Turning to `CNC(=O)N1CCc2nc(N3CCC(Oc4ccc(F)cc4F)CC3)c(-c3cnn(C4CCCCO4)c3)nc2C1` (centres unmarked) [Compound 181, 2-[4-(2,4-difluorophenoxy)piperidin-1-yl]-N-methyl-3-[1-(oxan-2-yl)-1H-pyrazol-4-yl]-5H,6H,7H,8H-pyrido[3,4-b]pyrazine-6-carboxamide], the pIC50 against GPR6 (setting [1]) and against GPR3 (setting [2]) was 4.52 to 6.00 in each case.
As for `O=C(CO)N1CCc2nc(N3CCC(Oc4ccc(F)cc4F)CC3)c(-c3cnn(C4CCCCO4)c3)nc2C1` (centres unmarked) [Compound 204, 1-{2-[4-(2,4-difluorophenoxy)piperidin-1-yl]-3-[1-(oxan-2-yl)-1H-pyrazol-4-yl]-5H,6H,7H,8H-pyrido [3,4-b]pyrazin-6-yl}-2-hydroxyethan-1-one], the results for the pIC50 on GPR6 (setting [1]) and on GPR3 (setting [2]) were 6.00 to 7.00 and at most 4.52, respectively.
In the case of `CC(=O)N1CCc2nc(N3CCN(C(=O)c4ccc(Cl)cc4)CC3)c(-c3cnn(C)c3)nc2C1` [Compound 538, 1-{2-[4-(p-chlorobenzoyl)-1-piperazinyl]-3-(1-methyl-4-pyrazolyl)-5,6,7,8-tetrahydro-1,4,6-triaza-6-naphthyl}-1-ethanone], the values for the pIC50 against GPR6 (setting [3]) and on GPR3 (setting [4]) were 6.00 to 7.00 and 4.52 to 6.00, respectively.
`CC(=O)N1CCc2nc(N3CCC(Oc4ccc(F)cc4F)CC3)c(-c3cccc(Cl)n3)nc2C1` [Compound 137, 1-(3-(6-chloropyridin-2-yl)-2-(4-(2,4-difluorophenoxy)piperidin-1-yl)-7,8-dihydropyrido[3,4-b]pyrazin-6(5H)-yl)ethanone]: the values for the pIC50 on GPR6 (setting [1]) and against GPR3 (setting [2]) were 6.00 to 7.00 and 4.52 to 6.00, respectively.
